Assay results as given in patent US20230022117A1, “RNAi-BASED TARGETING COMPOUNDS AND USES THEREOF TO PREVENT ACQUIRED HEARING LOSS” (MUSC FOUNDATION FOR RESEARCH DEVELOPMENT, priority 2019, published 2023).
Blank lines part the entries; values can stand above or below the compound they belong to.

How the values were obtained:
Type in all cases: in vivo, mouse
[1] = Body weight and survival with CDDP treatment
Description: There is no difference in auditory threshold shifts between CDDP 2.5-4 mg/kg with 55-60 dB shifts when measured on day 7 and on day 14 post treatment. […] This model was used to test the effect of AMPKα siRNA.
Body weight was measured before treatment, on treatment days, and 7 and 14 d post treatment. […] Data are presented as means±SD. CDDP2 mg/kg: n=2, CDDP 2.5 mg/kg: n=5, CDDP 3 mg/kg: n=2, CDDP 4 mg/kg: n=3.

CBA/J mice [2] = experiment: Cisplatin-plus-furosemide-induced hearing loss: ABR threshold shifts; settings: CDDP 2.5-4 mg/kg plus furosemide 200 mg/kg IP; measured on day 7 and on day 14 post treatment
CBA/J mice [3] = experiment: Kanamycin-plus-furosemide-induced hearing loss: ABR threshold shifts; settings: 8, 16, and 32 kHz; for hearing loss / auditory threshold shifts (in words): single treatment, KM 800 mg/kg SQ and/or Fu 200 mg/kg IP, 14 d after the injections; for KM-furosemide-induced auditory threshold shifts: 14 d after the injection
outer hair cells (OHCs) [4] = experiment: Kanamycin-furosemide-induced OHC loss: hair cell counts; settings: siRNA pretreatment via PSC; 14 d after the lesions
Excerpt: siCaMKKβ (Thermo Fisher, #n437808) (sense: […] SEQ ID NO: 1; antisense […] SEQ ID NO: 2) or siControl (Thermo Fisher, #4390844) was locally delivered via intra-tympanic application onto the RWM as previously described (Oishi et al., 2013; Hill et al., 2016) or via PSC to the endolymph based on reports (Guo, 2018 #3975; Tao, 2018 #3973). Briefly, after anesthesia, a retroauricular incision was made to approach the temporal bone. For intra-tympanic delivery onto the RWM, the otic bulla was identified ventral to the facial nerve and a shallow hole was made in the thin part of the otic bulla with a 30-G needle and enlarged with forceps to a diameter of 2 mm in order to visualize the round window. A customized sterile micro medical tube was inserted into the hole just above the round window niche (RWN) to slowly deliver 10 μL (0.6 μg) of siCaMKKβ or siControl. For PSC delivery, the stemocleidomastoid muscle was separated to expose the PSC. A small hole was made with the tip of a 30-G needle on the PSC and left open for about 1 min (there was no obvious endolymph leakage). […]
Images from the apex through the base of the DAB-stained preparations were captured using a 20× lens on the Zeiss microscope. The lengths of the cochlear epithelia were measured and recorded in millimeters. OHCs were counted from the apex to the base along the entire length of the mouse cochlear epithelium. […]

[5] = system: OHC mechanotransduction channels; experiment: FM1-43 uptake into OHCs (mechanotransduction channel function); settings: siRNA delivered through the PSC 48 h before application of FM1-43
Description: (§1) Since aminoglycoside antibiotics are known to enter outer hair cells (OHCs) mainly through mechanotransduction channels (MTCs), to address if protective effects of pretreatment with siCaMKKβ is due to blockade of kanamycin and/or furosemide entering OHCs, we assessed OHC MTCs using FM1-43FX, based on prior literature (Meyers et al., 2003; Taylor et al., 2008; Nakanishi et al., 2018). siCaMKKβ was delivered through the posterior semicircular canal (PSC) 48 h before application of FM1-43 to measure MTC function in OHCs. […] Scale bar=10 μm.
as §1, with “with siAMPKα1” for “with siCaMKKβ”, “2018). siAMPKα” for “2018). siCaMKKβ”

outer hair cells (OHCs) [6] = experiment: Noise-induced OHC loss: hair cell counts along the cochlear duct; settings: pretreatment via intra-tympanic delivery on RWM; 101-dB noise; 14 d after exposure
Description: (§2) Unrestrained CBA/J male mice at the age of 12 weeks (one mouse per stainless steel wire cage, approximately 9 cm^3) were exposed to broad band noise from to 2-20 kHz at 101 dB sound pressure level (SPL) for 2 h to induce permanent threshold shifts with loss of synaptic ribbons and OHCs, but not IHCs, or 106 dB to induce permanent threshold shifts with losses of ribbons, OHCs, and IHCs by 14 d after the noise exposure. […] Audio CD sound files were created and equalized with audio editing software (Audition 3; Adobe Systems, Inc.). The background sound intensity of the environment surrounding the cages was 65 dB as measured with a sound level meter (model 1200; Quest Technologies). Sound levels for noise exposure are calibrated with a sound level meter at multiple locations within the sound chamber to ensure the uniformity of the sound field before and after exposure. Control mice were kept in silence (without use of the loudspeaker) within the same chamber for 2 h. […]
Images from the apex through the base of the DAB-stained preparations were captured using a 20× lens on the Zeiss microscope. The lengths of the cochlear epithelia were measured and recorded in millimeters. OHCs were counted from the apex to the base along the entire length of the mouse cochlear epithelium.

CBA/J mice [7] = experiment: Noise-induced hearing loss (101-dB broad band noise): ABR threshold shifts; settings: pretreatment via intra-tympanic delivery on RWM; 8, 16, and 32 kHz; 14 d after noise exposure; vs siControl
Description: as §2
ABRs were measured in the left ears of anaesthetized mice before and two weeks after noise exposure. […] Body temperature was monitored and maintained near 37° C. with a heating pad. […] ABRs were measured at 8, 16, and 32 kHz. […] Thresholds were determined for each frequency by reducing the intensity in 10-dB increments and then in 5-dB steps near threshold until no organized responses were detected. […]

CBA/J mice [8] = experiment: Noise-induced hearing loss (101-dB noise): DPOAE thresholds; settings: pretreatment via intra-tympanic delivery on RWM; 12-40 kHz; 14 d after noise exposure
CaMKKβ = experiment: Silencing efficiency: CaMKKβ immunolabeling in OHCs after siRNA delivery; settings: basal turn, 22-32 kHz
Excerpt: siCaMKKβ (Thermo Fisher, #n437808) (sense: […] SEQ ID NO: 1; antisense […] SEQ ID NO: 2) or siControl (Thermo Fisher, #4390844) was locally delivered via intra-tympanic application onto the RWM as previously described (Oishi et al., 2013; Hill et al., 2016) or via PSC to the endolymph based on reports (Guo, 2018 #3975; Tao, 2018 #3973). Briefly, after anesthesia, a retroauricular incision was made to approach the temporal bone. For intra-tympanic delivery onto the RWM, the otic bulla was identified ventral to the facial nerve and a shallow hole was made in the thin part of the otic bulla with a 30-G needle and enlarged with forceps to a diameter of 2 mm in order to visualize the round window. […]
Immunohistochemistry is well accepted as a semi-quantitative methodology when used with careful consideration of the utility and semi-quantitative nature of these assays (Taylor, 2006 #3978; Walker, 2006 #3979). The specificity of antibodies must be first detected by Western blot analysis. Antibodies showing only a single band with the correct molecular weight were used for immunolabeling on surface preparations and quantification of signaling in OHCs. […] The grayscale value was determined in only the hair cells to quantify the change in fluorescence intensity. This procedure provided quantitative measurements that are not confounded by protein expression in other cell types of the cochlea. […]

CBA/J mice [9] = experiment: Kanamycin-furosemide-induced damage to OHC function: DPOAE; settings: siRNA pretreatment via PSC; 14 d after the injection
IHC synapses = experiment: Noise-induced loss of IHC synapses: CtBP2/GluA2 counts; settings: pretreatment via intra-tympanic delivery onto the RWM; 101-dB noise; 14 d; loss at 22 and 32 kHz
Description: as §2, with “exposure.” for “exposure. Control mice were kept in silence (without use of the loudspeaker) within the same chamber for 2 h.”
A procedure as previously described by Hill et al., 2016 was followed. Immunofluorescence of CtBP2 on surface preparations was quantified from original confocal images, each taken with a 63×-magnification lens under identical Z-stack conditions in […] intervals and equal parameter settings for laser gains and PMT gains. […] The number of synaptic ribbons was counted using ImageJ software (National Institutes of Health, Bethesda, Md.). […]

Compound: [NH2][Pt]([NH2])([Cl])[Cl] [CDDP, cisplatin]
death ([1]; 3 mg/kg CDDP treated group, day 8 after the treatment): One mouse of the 3 mg/kg CDDP treated group died
changes in body weight ([1]; CDDP at and above 3 mg/kg, day 7 post treatment vs beginning of the treatment): loss of body weight
changes in body weight ([1]; CDDP at doses below or equal 2.5 mg/kg): no significant changes
auditory threshold shifts (CBA/J mice [2]): 55-60 dB

hearing loss / auditory threshold shifts (in words) (CBA/J mice [3]): does not induce hearing loss
Compound: NC[C@H]1O[C@H](O[C@H]2[C@H](O)[C@@H](O[C@H]3O[C@H](CO)[C@@H](O)[C@H](N)[C@H]3O)[C@H](N)C[C@@H]2N)[C@H](O)[C@@H](O)[C@@H]1O [KM, kanamycin, reference compound]

hearing loss / auditory threshold shifts (in words) (CBA/J mice [3]): does not induce hearing loss
Compound: NS(=O)(=O)c1cc(C(=O)O)c(NCc2ccco2)cc1Cl [furosemide, reference compound]

Compound: siCaMKKβ: CaMKKβ siRNA (Thermo Fisher, #n437808); sense GAGCACAAAUAAUUGUUUUTT SEQ ID NO: 1; antisense AAAACAAUUAUUUGUGCUCTA SEQ ID NO: 2 (chemistry not given here)
KM-furosemide-induced OHC loss (outer hair cells (OHCs) [4]): completely prevents
KM-furosemide-induced auditory threshold shifts (CBA/J mice [3]; siRNA pretreatment via PSC): completely prevented
KM-furosemide-induced auditory threshold shifts (CBA/J mice [3]; siRNA pretreatment via intra-tympanic delivery onto the RWM): significant reduction
FM1-43 uptake into OHCs compared with siControl mice [5]: does not change
noise-induced OHC loss (outer hair cells (OHCs) [6]): significantly reduced
threshold shifts induced by exposure to 101-dB noise (CBA/J mice [7]): significantly decreases
101-dB-noise-increased DPOAE thresholds (CBA/J mice [8]): significantly attenuates
decrease of CaMKKβ immunolabeling in grayscale in OHCs compared to siControls (CaMKKβ; 72 h after PSC delivery): about 90%
decrease of CaMKKβ immunolabeling in grayscale in OHCs compared to siControls (CaMKKβ; 72 h after intra-tympanic delivery onto the RWM): about 40%
KM-furosemide-induced reduction of DPOAE (damage to OHC function) (CBA/J mice [9]): completely prevented
noise-induced loss of synapses (CtBP2/GluA2) (IHC synapses): prevented
